# Laboratory results taken from patent US8815882B2, “Pyrazole aminopyrimidine derivatives as LRRK2 modulators” (Genentech, Inc., priority 2010, dated 2014).
# Target: T1, LRRK2 (Homo sapiens, UniProt Q5S007, G2019S)
# T1 construct: purchased Invitrogen PV4882 (lot 567054A)
# Test: In Vitro LRRK2 Assay (LabChip 3000, fluorescently-labeled peptide substrate, ATP)
# Assay type: biochemical
# Conditions: read-out: LRRK2 Ki (KI), Table 8
# Procedure: This assay was used to determine a compound's potency in inhibiting activity of LRRK2 by determining, Kiapp, IC50, or percent inhibition values. In a polypropylene plate, LRRK2, fluorescently-labeled peptide substrate, ATP and test compound were incubated together. Using a LabChip 3000 (Caliper Life Sciences), after the reaction the substrate was separated by capillary electrophoresis into two populations: phosphorylated and unphosphorylated. The relative amounts of each were quantitated by fluorescence intensity. LRRK2 Ki was determined according to the equation: Y=V0*(1−(x+Ki*(1+S/Km)+Et)/(2*Et)−(((x+Ki*(1+S/Km)+Et)^2−(4*Et*x))^0.5)/(2*Et))). Ki values in Table 4 and elsewhere herein are shown in μM.
# Assay conditions and materials used were as follows:
# Compound Plate Preparation:
# For serial dilutions, 34.6 μl DMSO was added to columns 3-24.
# Total and Blank Preparation:
# In Complete Reaction Buffer, substrate was diluted to 4 μM. Equal volumes of Complete Reaction Buffer and 4 μM substrate were combined to obtain the blank. Equal volumes of Complete Reaction Buffer and 4 μM substrate were combined and to the combined solution was added 2× final LRRK2 concentration.
# To a 50 μl polypropylene plate, 5 μl/well buffer/substrate was added by hand to Blank wells. A Biomek FX was used to start the kinase reaction (“PLK SAR 23 ATP”). The following were added to the appropriate wells:
# 5 μl/well compound/ATP in Assay Plate;
# 5 μl/well kinase/substrate in Assay Plate;
# The plate was incubated for 2 hours in the dark. Biomek FX was used to stop the kinase reaction (“PLK Stop”), and 10 μl/well Stop solution was added to the Assay Plate. Results were read on the LabChip 3000.
# The LabChip 3000 was run using the job “LRRK2 IC50” with the following job settings: […]
# T1 sequence (Q5S007 whole entry G2019S): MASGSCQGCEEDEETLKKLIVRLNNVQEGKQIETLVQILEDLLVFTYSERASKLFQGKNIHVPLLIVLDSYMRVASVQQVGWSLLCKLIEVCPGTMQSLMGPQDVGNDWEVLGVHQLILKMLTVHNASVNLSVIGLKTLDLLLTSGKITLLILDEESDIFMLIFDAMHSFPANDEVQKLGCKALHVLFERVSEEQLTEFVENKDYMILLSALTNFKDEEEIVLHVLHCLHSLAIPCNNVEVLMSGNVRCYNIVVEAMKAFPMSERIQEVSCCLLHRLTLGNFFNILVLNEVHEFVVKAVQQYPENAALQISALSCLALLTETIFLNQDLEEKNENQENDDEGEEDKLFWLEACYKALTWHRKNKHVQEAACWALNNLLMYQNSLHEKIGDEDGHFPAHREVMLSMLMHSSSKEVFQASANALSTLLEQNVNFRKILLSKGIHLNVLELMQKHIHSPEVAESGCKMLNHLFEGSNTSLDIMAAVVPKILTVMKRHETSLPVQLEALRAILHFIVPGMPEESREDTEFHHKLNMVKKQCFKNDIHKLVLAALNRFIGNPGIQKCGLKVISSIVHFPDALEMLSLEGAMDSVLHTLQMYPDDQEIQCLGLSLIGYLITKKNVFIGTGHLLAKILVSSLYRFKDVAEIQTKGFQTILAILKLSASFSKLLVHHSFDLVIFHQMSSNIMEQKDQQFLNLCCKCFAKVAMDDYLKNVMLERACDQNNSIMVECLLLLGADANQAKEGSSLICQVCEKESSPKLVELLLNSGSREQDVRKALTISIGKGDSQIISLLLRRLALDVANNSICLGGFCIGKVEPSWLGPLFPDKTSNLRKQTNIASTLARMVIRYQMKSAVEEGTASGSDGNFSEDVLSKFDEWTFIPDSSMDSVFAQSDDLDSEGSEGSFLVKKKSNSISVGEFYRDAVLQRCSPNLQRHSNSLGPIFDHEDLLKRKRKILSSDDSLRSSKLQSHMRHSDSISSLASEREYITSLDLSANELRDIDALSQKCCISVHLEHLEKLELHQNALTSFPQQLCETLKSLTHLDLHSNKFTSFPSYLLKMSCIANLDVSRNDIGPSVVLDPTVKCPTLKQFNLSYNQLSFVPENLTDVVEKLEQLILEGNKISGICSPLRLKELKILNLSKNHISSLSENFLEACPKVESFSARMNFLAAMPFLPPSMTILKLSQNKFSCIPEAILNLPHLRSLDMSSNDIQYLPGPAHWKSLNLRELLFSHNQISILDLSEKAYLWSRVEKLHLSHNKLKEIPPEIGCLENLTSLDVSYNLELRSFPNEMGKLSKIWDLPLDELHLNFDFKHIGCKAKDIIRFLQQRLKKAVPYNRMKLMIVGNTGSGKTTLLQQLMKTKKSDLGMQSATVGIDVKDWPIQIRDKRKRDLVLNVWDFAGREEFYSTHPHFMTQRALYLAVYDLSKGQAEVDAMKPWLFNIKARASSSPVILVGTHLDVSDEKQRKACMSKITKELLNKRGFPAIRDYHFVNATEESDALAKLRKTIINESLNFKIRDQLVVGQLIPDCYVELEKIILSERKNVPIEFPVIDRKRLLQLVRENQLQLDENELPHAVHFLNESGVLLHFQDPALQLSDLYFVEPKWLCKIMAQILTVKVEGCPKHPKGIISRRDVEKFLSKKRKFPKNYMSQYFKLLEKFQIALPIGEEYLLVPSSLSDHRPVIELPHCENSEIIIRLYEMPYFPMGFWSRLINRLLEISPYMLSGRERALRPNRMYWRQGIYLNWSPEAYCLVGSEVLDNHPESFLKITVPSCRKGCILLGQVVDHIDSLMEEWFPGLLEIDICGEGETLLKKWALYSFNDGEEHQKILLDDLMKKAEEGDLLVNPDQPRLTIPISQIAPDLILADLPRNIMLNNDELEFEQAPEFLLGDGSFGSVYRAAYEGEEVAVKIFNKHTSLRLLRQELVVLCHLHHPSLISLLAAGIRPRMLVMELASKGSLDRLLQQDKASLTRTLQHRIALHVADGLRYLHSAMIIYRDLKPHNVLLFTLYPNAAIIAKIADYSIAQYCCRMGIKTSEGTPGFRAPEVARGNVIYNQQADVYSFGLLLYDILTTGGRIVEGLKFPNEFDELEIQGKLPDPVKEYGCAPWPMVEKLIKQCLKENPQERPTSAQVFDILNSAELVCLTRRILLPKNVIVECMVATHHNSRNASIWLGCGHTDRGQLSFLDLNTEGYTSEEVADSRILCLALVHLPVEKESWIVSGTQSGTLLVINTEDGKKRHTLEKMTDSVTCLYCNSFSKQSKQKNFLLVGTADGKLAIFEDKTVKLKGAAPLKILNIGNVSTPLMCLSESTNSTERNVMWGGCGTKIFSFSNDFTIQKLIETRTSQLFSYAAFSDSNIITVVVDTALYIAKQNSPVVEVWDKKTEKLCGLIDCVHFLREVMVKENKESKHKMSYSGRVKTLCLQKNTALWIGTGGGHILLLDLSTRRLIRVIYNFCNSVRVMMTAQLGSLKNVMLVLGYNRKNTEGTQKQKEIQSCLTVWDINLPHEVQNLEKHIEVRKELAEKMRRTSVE
row,Ki [nM],Structure (SMILES)
1,4.1,"CNc1nc(Nc2cnn(C3CCN(CC(F)(F)F)CC3)c2C)ncc1C(F)(F)F [Example 91, N4-methyl-N2-(5-methyl-1-(1-(2,2,2-trifluoroethyl)piperidin-4-yl)-1H-pyrazol-4-yl)-5-(trifluoromethyl) pyrimidine-2,4-diamine]"
2,46,"CNc1nc(Nc2cn(C3CCN(CC(F)(F)F)CC3)nc2C)ncc1C(F)(F)F [Example 92, N4-methyl-N2-(3-methyl-1-(1-(2,2,2-trifluoroethyl)piperidin-4-yl)-1H-pyrazol-4-yl)-5-(trifluoromethyl) pyrimidine-2,4-diamine]"
3,1.4,"CNc1nc(Nc2cnn(C3CCN(CC(F)(F)F)CC3)c2C)ncc1Br [Example 93, 5-bromo-N4-methyl-N2-(5-methyl-1-(1-(2,2,2-trifluoroethyl)piperidin-4-yl)-1H-pyrazol-4-yl)pyrimidine-2,4-diamine]"
4,13,"CNc1nc(Nc2cn(C3CCN(CC(F)(F)F)CC3)nc2C)ncc1Br [Example 94, 5-bromo-N4-methyl-N2-(3-methyl-1-(1-(2,2,2-trifluoroethyl)piperidin-4-yl)-1H-pyrazol-4-yl)pyrimidine-2,4-diamine]"
5,1.2,"CNc1nc(Nc2cn(CC(F)(F)F)nc2C)ncc1Br [Example 95, 5-bromo-N4-methyl-N2-(3-methyl-1-(2,2,2-trifluoroethyl)-1H-pyrazol-4-yl)pyrimidine-2,4-diamine]"
6,1.1,"CNc1nc(Nc2cnn(CC(F)(F)F)c2C)ncc1Br [Example 96, 5-bromo-N4-methyl-N2-(5-methyl-1-(2,2,2-trifluoroethyl)-1H-pyrazol-4-yl)pyrimidine-2,4-diamine]"
7,1.6,"CCNc1nc(Nc2cn(C3COC3)nc2C)ncc1C(F)(F)F [Example 97, N4-ethyl-N2-(3-methyl-1-(oxetan-3-yl)-1H-pyrazol-4-yl)-5-(trifluoromethyl) pyrimidine-2,4-diamine]"
8,3.1,"CCNc1nc(Nc2cn(C3COC3)nc2C)ncc1Cl [Example 98, 5-chloro-N4-ethyl-N2-(3-methyl-1-(oxetan-3-yl)-1H-pyrazol-4-yl)pyrimidine-2,4-diamine]"
9,5.4,"CNc1nc(Nc2ccnn2C)ncc1Br [Example 99, 5-bromo-N4-methyl-N2-(1-methyl-1H-pyrazol-5-yl)pyrimidine-2,4-diamine]"
10,8.8,"CNc1nc(Nc2cn(S(C)(=O)=O)nc2C)ncc1Cl [Example 101, 5-chloro-N4-methyl-N2-(3-methyl-1-(methylsulfonyl)-1H-pyrazol-4-yl)pyrimidine-2,4-diamine]"
11,2.9,"CNc1nc(Nc2cn(S(C)(=O)=O)nc2C)ncc1C(F)(F)F [Example 102, N4-methyl-N2-(3-methyl-1-(methylsulfonyl)-1H-pyrazol-4-yl)-5-(trifluoromethyl) pyrimidine-2,4-diamine]"
12,9,"CNc1nc(Nc2c[nH]nc2C)ncc1C(F)(F)F [Example 103, N4-methyl-N2-(3-methyl-1H-pyrazol-4-yl)-5-(trifluoromethyl) pyrimidine-2,4-diamine]"
13,1.4,"CCNc1nc(Nc2cn(C3COC3)nc2C)ncc1Br [Example 104, 5-bromo-N4-ethyl-N2-(3-methyl-1-(oxetan-3-yl)-1H-pyrazol-4-yl)pyrimidine-2,4-diamine]"
14,5.5,"CNc1nc(Nc2cn(C(F)F)nc2C)ncc1C(F)(F)F [Example 105, N2-(1-(difluoromethyl)-3-methyl-1H-pyrazol-4-yl)-N4-methyl-5-(trifluoromethyl) pyrimidine-2,4-diamine]"
15,1.9,"CNc1nc(Nc2cnn(C(F)F)c2C)ncc1C(F)(F)F [Example 106, N2-(1-(difluoromethyl)-5-methyl-1H-pyrazol-4-yl)-N4-methyl-5-(trifluoromethyl) pyrimidine-2,4-diamine]"
16,0.43,"CCNc1nc(Nc2cnn(CC)c2C)ncc1Br [Example 107, 5-bromo-N4-ethyl-N2-(1-ethyl-5-methyl-1H-pyrazol-4-yl)pyrimidine-2,4-diamine]"
17,0.3,"CNc1nc(Nc2cn(-c3ccc(F)cc3)nc2C)ncc1Br [Example 108, 5-bromo-N2-(1-(4-fluorophenyl)-3-methyl-1H-pyrazol-4-yl)-N4-methylpyrimidine-2,4-diamine]"
18,8.4,"CNc1nc(Nc2cn(-c3ccccc3)nc2C)ncc1Br [Example 109, 5-bromo-N4-methyl-N2-(3-methyl-1-phenyl-1H-pyrazol-4-yl)pyrimidine-2,4-diamine]"
19,12,"CCCn1cc(Nc2ncc(Br)c(NC)n2)c(C)n1 [Example 113, 5-bromo-N4-methyl-N2-(3-methyl-1-propyl-1H-pyrazol-4-yl)pyrimidine-2,4-diamine]"
20,19,"CNc1nc(Nc2cn(CC3(C)COC3)nc2C)ncc1Cl [Example 114, 5-chloro-N4-methyl-N2-(3-methyl-1-((3-methyloxetan-3-yl)methyl)-1H-pyrazol-4-yl)pyrimidine-2,4-diamine]"
21,31,"CNc1nc(Nc2cnn(-c3cc(F)cc(F)c3)c2C)ncc1Br [Example 115, 5-bromo-N2-(1-(3,5-difluorophenyl)-5-methyl-1H-pyrazol-4-yl)-N4-methylpyrimidine-2,4-diamine]"
22,0.3,"CNc1nc(Nc2cn(-c3cc(F)cc(F)c3)nc2C)ncc1Br [Example 116, 5-bromo-N2-(1-(3,5-difluorophenyl)-3-methyl-1H-pyrazol-4-yl)-N4-methylpyrimidine-2,4-diamine]"
23,6.7,"CNc1nc(Nc2cn(-c3ccccn3)nc2C)ncc1C(F)(F)F [Example 117, N4-methyl-N2-(3-methyl-1-(pyridin-2-yl)-1H-pyrazol-4-yl)-5-(trifluoromethyl) pyrimidine-2,4-diamine]"
24,7.2,"CNc1nc(Nc2cn(CC3(C)COC3)nc2C)ncc1C(F)(F)F [Example 118, N4-methyl-N2-(3-methyl-1-((3-methyloxetan-3-yl)methyl)-1H-pyrazol-4-yl)-5-(trifluoromethyl) pyrimidine-2,4-diamine]"
25,5.6,"CCCn1ncc(Nc2ncc(C(F)(F)F)c(NC)n2)c1C [Example 119, N4-methyl-N2-(5-methyl-1-propyl-1H-pyrazol-4-yl)-5-(trifluoromethyl) pyrimidine-2,4-diamine]"
26,0.6,"CCCn1cc(Nc2ncc(C(F)(F)F)c(NC)n2)c(C)n1 [Example 120, N4-methyl-N2-(3-methyl-1-propyl-1H-pyrazol-4-yl)-5-(trifluoromethyl) pyrimidine-2,4-diamine]"
27,3.1,"CNc1nc(Nc2cn(C(C)C)nc2C)ncc1Br [Example 121, 5-bromo-N2-(1-isopropyl-3-methyl-1H-pyrazol-4-yl)-N4-methylpyrimidine-2,4-diamine]"
28,14,"CNc1nc(Nc2cnn(-c3ccc(Cl)cc3)c2C)ncc1Br [Example 122, 5-bromo-N2-(1-(4-chlorophenyl)-5-methyl-1H-pyrazol-4-yl)-N4-methylpyrimidine-2,4-diamine]"
29,0.3,"CNc1nc(Nc2cnn(-c3ccc(Cl)cc3)c2C)ncc1C(F)(F)F [Example 123, N2-(1-(4-chlorophenyl)-5-methyl-1H-pyrazol-4-yl)-N4-methyl-5-(trifluoromethyl) pyrimidine-2,4-diamine]"
30,0.3,"CNc1nc(Nc2cn(-c3ccc(S(C)(=O)=O)cc3)nc2C)ncc1C(F)(F)F [Example 124, N4-methyl-N2-(3-methyl-1-(4-(methylsulfonyl)phenyl)-1H-pyrazol-4-yl)-5-(trifluoromethyl) pyrimidine-2,4-diamine]"
